In US12426598B2, “Method for controlling herbicide-resistant weed” (SUMITOMO CHEMICAL COMPANY, LIMITED, priority 2019, dated 2025):

Assays:
[1] = test system: PPO inhibitor-resistant weeds; assay: Pot tests with crops in greenhouse (Examples 73 to 2304)
Method: On the same day, compound X is applied to the surface of soil so that the application rate of the compound X is 10, 20, 40, or 80 g/ha and the spray liquid amount is 200 L/ha. The plastic pot is then placed in a greenhouse, and at 7 days after the application, soybeans are seeded, and further at 14 days after seeding the soybeans, the effect on the weeds and crop injuries on the soybeans are investigated.
On the same day, compound X is applied to the surface of soil so that the application rate of the compound X is 10, 20, 40, or 80 g/ha and the spray liquid amount is 200 L/ha. The soybeans are then cultivated in a greenhouse, and at 21 days after seeding, the effect on the weeds and crop injuries on the soybeans are investigated.
The soybeans are then cultivated in a greenhouse, and at 21 days after seeding, compound X is applied to the stem and leaf so that the application rate of the compound X is 10, 20, 40, or 80 g/ha and the spray liquid amount is 200 L/ha. Further, the soybeans are cultivated in the greenhouse, and at 14 days after the application of compound X, the effect on the weeds and crop injuries on the soybeans are investigated.

[2] = test system: waterhemp containing a Gly210 deficiency in PPO2; assay: Foliar spray pot test in greenhouse, herbicidal effect; format: in vivo, Amaranthus tuberculatus; conditions: 200 L/ha, rating 0 to 100
[3] = test system: palmer amaranth containing a Gly399Ala mutation in PPO2; assay: as above; format: in vivo, Amaranthus palmeri; conditions: 200 L/ha, rating 0 to 100
[4] = Examples 289 to 432: as Examples 1 to 144, XtendiMax added at 1 pint/acre (560 g/ha)
[5] = Examples 433 to 576: as Examples 1 to 144, RoundupPowerMax 32 fluid ounce/acre and XtendiMax 1 pint/acre added
[6] = Example 2305: plant height 10 cm, sprayed 5 g/ha, 14 days after
[7] = Example 2306: plant height 30 cm, sprayed 20 g/ha, 7 days after

## CCOC(=O)COc1ccccc1Oc1nc(-n2c(=O)cc(C(F)(F)F)n(C)c2=O)c(F)cc1Cl [compound X]
[1]; [4]
  effect on the weeds: effective control effect
[1]; [5]
  effect on the weeds: effective control effect
[2]; [6]
  Herbicidal effect: 60
[2]; [7]
  Herbicidal effect: 45
[3]; [6]
  Herbicidal effect: 100
[3]; [7]
  Herbicidal effect: 97

## CCOC(=O)COc1ncccc1Oc1nc(-n2c(=O)cc(C(F)(F)F)n(C)c2=O)c(F)cc1Cl [compound Y]
[1]; Examples 73 to 144: as Examples 1 to 72, compound Y instead of compound X
  effect on the weeds: effective control effect
[1]; [4]
  effect on the weeds: effective control effect
[1]; [5]
  effect on the weeds: effective control effect
